Test results: PubChem BioAssay AID1417 (Emory University Molecular Libraries Screening Center, 2008)

What follows are molecules tested against Induced myeloid leukemia cell differentiation protein Mcl-1 (Homo sapiens) (UniProt Q07820) (assay: Mcl-1/Noxa binding inhibitor potency, dose response, biochemical, TR-FRET (AID 1417)). Conditions: Mcl-1/Noxa peptide interaction, cell-free TR-FRET (terbium/rhodamine), 2 h; measured here: absolute IC50.
Induced myeloid leukemia cell differentiation protein Mcl-1 (Homo sapiens), sequence (Q07820 whole entry, looked up): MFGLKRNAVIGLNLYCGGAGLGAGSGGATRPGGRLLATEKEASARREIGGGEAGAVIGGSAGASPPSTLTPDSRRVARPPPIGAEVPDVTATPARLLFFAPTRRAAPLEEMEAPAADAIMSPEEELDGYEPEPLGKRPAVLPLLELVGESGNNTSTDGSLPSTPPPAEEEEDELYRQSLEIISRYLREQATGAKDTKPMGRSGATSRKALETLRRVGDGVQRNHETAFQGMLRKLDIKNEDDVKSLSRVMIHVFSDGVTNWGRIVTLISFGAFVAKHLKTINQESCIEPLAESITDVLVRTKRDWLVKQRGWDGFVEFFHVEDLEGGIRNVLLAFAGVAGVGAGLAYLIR

Compared with Cc1cccc(NC2=C(NC(=O)c3ccccc3)C(=O)c3ccccc3C2=O)c1, Nc1c(O)ccc2c1C(=O)c1ccccc1C2=O is 13-fold higher in IC50: 3410 nM for the first, 43400 nM for the second.

Compared with Cc1nc(NC(=O)c2ccco2)sc1-c1csc(Nc2ccc(Cl)cc2Cl)n1, O=c1oc2ccccc2cc1-c1csc(Nc2ccc(O)cc2)n1 is 1.7-fold lower in IC50: 1240 nM for the first, 716 nM for the second.

Going from Cc1cccc2cc(/C=N/NC(=O)c3ccccc3O)c(Cl)nc12 to Cc1ccc(C(C)C)c(OCc2ccc(C(=O)N/N=C/c3ccc(O)cc3O)cc2)c1, the IC50 rises from 6090 nM to 13300 nM (2.2-fold).

First: Cc1sc(NC(=O)c2cc(-c3ccc(Cl)cc3)nc3ccccc23)c(C(N)=O)c1C
Second: Cn1c(N)c(C(=O)COC(=O)c2cc(-c3ccco3)nc3ccccc23)c(=O)n(Cc2ccccc2)c1=O
The IC50 of the first is higher: 18200 nM for the first, less than 400 nM for the second. The second is the more potent here.

Going from CN(C)c1ccc(/C=N/N(Cc2ccccc2)c2ccccc2)cc1 to CN(C)c1ccc(CC(=O)c2nc3ccccc3s2)cc1, the IC50 falls from greater than 54000 nM to 3190 nM.

Going from CN=c1scc(-c2cccs2)n1/N=C/c1ccc(O)c(O)c1O to CC(=O)c1ccc(-n2c(CCC(=O)O)ccc2-c2cccs2)cc1, the IC50 rises from less than 400 nM to greater than 54000 nM. The first is the more potent here.

First: Oc1cc2c(cc1O)C1c3ccc(O)c(O)c3OCC1(O)C2 (configuration not stated)
Second: O=C(/C=C1\NC2(CCCC2)Cc2ccccc21)C(=O)N/N=C/c1ccc(O)c(O)c1
The IC50 of the first is lower: less than 400 nM for the first, 3470 nM for the second.

First: O=C(O)CSc1cc(NS(=O)(=O)c2cccc([N+](=O)[O-])c2)c2ccccc2c1O
Second: O=C(O)c1cccc2c1NC(c1cccc([N+](=O)[O-])c1)C1CC(Sc3ccccc3[N+](=O)[O-])C(Cl)C21 (configuration not stated)
The IC50 of the first is lower: less than 400 nM for the first, 2250 nM for the second.

Compared with COc1ccccc1/C=c1\sc2nc(-c3ccco3)nn2c1=O, CCOC(=O)c1cc(-c2ccco2)nc2c1c(C)nn2-c1cccc(Cl)c1 is 3.5-fold lower in IC50: 8180 nM for the first, 2360 nM for the second.

Going from CC(C)CC1NC(=O)N(CC(=O)c2ccc3c(c2)OCCO3)C1=O (configuration not stated) to CC(=O)Nc1ccc(-c2csc(NC(=O)C3CC(=O)N(c4ccc5c(c4)OCCO5)C3)n2)cc1 (configuration not stated), the IC50 falls from greater than 54000 nM to 3250 nM.

First: CCOC(=O)c1c(OCC)[nH]c2c1cc(O)c1ccccc12
Second: CCOc1ccccc1NC(=O)/C=C/C(N)=O
The IC50 of the first is lower: less than 400 nM for the first, greater than 54000 nM for the second.

Going from CC(=O)Nc1sc(N/N=C/c2ccc(O)cc2)nc1-c1ccc(C)cc1 to CCOc1ccc(N=C2NC(=O)S/C2=C\c2ccc(O)cc2)cc1, the IC50 falls from 3720 nM to 1260 nM (3-fold). The second is the more potent here.

Compared with O=C(NCc1ccccn1)c1ccc2nc(-c3ccco3)c(-c3ccco3)nc2c1, O=S(=O)(c1ccc2nc(-c3ccco3)c(-c3ccco3)nc2c1)N1CCOCC1 is 6.1-fold higher in IC50: 1380 nM for the first, 8410 nM for the second.

Going from CSc1cnn(Cc2ccccc2)c(=O)c1SCc1ccccc1 to Cc1c(Cc2ccccc2)c(NCCN(C)C)n2c(nc3ccccc32)c1C#N, the IC50 falls from greater than 54000 nM to 1910 nM. The second is the more potent here.

Compared with COc1ccc(N2CCN(C(=O)c3ccc(CSc4ccccc4)cc3)CC2)cc1, O=C(Nc1ccc(N2CCCC2)cc1)c1ccc2ccccc2c1 is lower in IC50: greater than 54000 nM for the first, 4970 nM for the second. The second is the more potent here.

First: COc1cc(/C=N/NC(=O)c2ccc(CN3C(=O)c4cccc5cccc3c45)cc2)cc(OC)c1O
Second: COc1ccc(CCNC(=O)COC(=O)Cc2cccc3ccccc23)cc1
The IC50 of the first is lower: 3430 nM for the first, greater than 54000 nM for the second.

Compared with O=[N+]([O-])C(=c1ccc2c(c1)N1C3=C(CCCC3)CC3CCCCC31N=2)[N+](=O)[O-] (configuration not stated), CN1CCN(c2ccc([N+](=O)[O-])cc2/C=N/NC(=O)c2ccc(F)cc2)CC1 is higher in IC50: less than 400 nM for the first, 4750 nM for the second.

Going from O=[N+]([O-])c1cc(Cl)cc(/C=N/NC(=S)Nc2ccc(S(=O)(=O)N3CCOCC3)cc2)c1O to Cc1cc(C)c2c(c1)C1C=CCC1C(c1ccc(S(=O)(=O)N3CCOCC3)cc1)N2 (configuration not stated), the IC50 rises from less than 400 nM to 2050 nM. The first is the more potent here.

Compared with CCOc1c(Cl)cc(CNc2ccc(N3CCCC3)cc2)cc1OC, Cc1cccc(-c2nc(Nc3ccc(N4CCOCC4)cc3)c3ccccc3n2)c1 is lower in IC50: 1580 nM for the first, less than 400 nM for the second. The second is the more potent here.

Compared with O=c1[nH]c(=S)[nH]c(O)c1N=Nc1ccc(-c2ccccc2)cc1[N+](=O)[O-], Cc1c(N=Nc2c(-c3ccc([N+](=O)[O-])cc3)[nH]n(C(N)=S)c2=O)cccc1[N+](=O)[O-] is lower in IC50: 2990 nM for the first, less than 400 nM for the second.

Compared with O=C(Nc1ccc(Cl)cc1)N1CCc2[nH]c3ccccc3c2C1, CN(C)c1ccc(NC(=O)/C=C/c2ccccc2Cl)cc1 is lower in IC50: greater than 54000 nM for the first, less than 400 nM for the second. The second is the more potent here.

First: Cc1ccc(-n2c(=O)c3cc4c(=O)n(-c5ccc(C)c(C)c5)c(=O)c4c(C(=O)c4ccc(C(=O)O)cc4)c3c2=O)cc1C
Second: Cc1ccc(NC(=O)CN2C(=O)S/C(=C/c3ccc(-c4cc(C(=O)O)ccc4C)o3)C2=O)cc1C
The IC50 of the first is 1.5-fold higher: 4280 nM for the first, 2850 nM for the second. The second is the more potent here.

First: CC1CCc2c(sc(Nc3nc4c(F)cccc4s3)c2C(N)=O)C1 (configuration not stated)
Second: Nc1c(C(=O)NCC2CCCO2)sc2nc3c(c(-c4ccco4)c12)CC/C3=C\c1ccco1 (configuration not stated)
The IC50 of the first is lower: less than 400 nM for the first, 800 nM for the second.

First: CC12CN3CC(C)(CN(C1)C3c1ccccc1Cl)C2O (configuration not stated)
Second: C=CCOC(=O)C1=C(C)N=c2s/c(=C3\C(=O)N(CC(=O)O)c4ccccc43)c(=O)n2C1c1ccc(OC)cc1 (configuration not stated)
The IC50 of the first is higher: greater than 54000 nM for the first, 3480 nM for the second. The second is the more potent here.

Compared with CN(c1ccccc1)c1ccc(/C=C(\CCC(=O)O)c2nc3ccccc3s2)cc1[N+](=O)[O-], Cc1ccc2nc(/C(C#N)=C/c3ccc(-c4cccc([N+](=O)[O-])c4)o3)[nH]c2c1 is 1.6-fold higher in IC50: 1060 nM for the first, 1680 nM for the second. The first is the more potent here.

First: COc1ccc(-n2nc3cc(C)c(N)c(Br)c3n2)cc1
Second: CNC(=S)Nc1sc2c(c1C(=O)OC)CCC2
The IC50 of the first is 2.2-fold higher: 2860 nM for the first, 1320 nM for the second. The second is the more potent here.
